# US12319726B2, “Method for treating CD40-mediated diseases” (CASE WESTERN RESERVE UNIVERSITY, priority 2008, dated 2025)
# Where a SMILES comes first, the peptide text is derived from it. [ ]: non-standard residue; d: D form.
# Assays:
# [1] = test system: retinas subjected to I/R; assay: Model of retinal ischemia/reperfusion (I/R), intravitreal peptide; type: in vivo, B6 mice
# Protocol: FIGS. 20(A-C) illustrate images and graphs showing ri CD40-TRAF2,3 blocking peptide protects against loss of ganglion cells and leukocyte infiltration in retinas subjected to I/R. One eye from each B6 and CD40^−/− mouse was subjected to I/R. Contralateral non-ischemic eye was used as control. Eyes subjected to I/R in B6 mice were treated intravitreously with or without ri control peptide, ri CD40-TRAF2,3 blocking peptide (both 1 μg) 30 min prior to increase in IOP. Eyes were collected 2 d after I/R. A marked decrease in the number of ganglion cells is observed in ischemic eyes from B6 treated with ri control peptide or vehicle (original magnification ×400). […] Arrowhead plus asterix identifies a PMN magnified in the inset (original magnification ×600). Scale bar, 50 μm. Number of ganglion cells per mm. Number of infiltrating leukocytes in the inner retina and vitreous per section. GCL=Ganglion cell layer; IPL=Inner plexiform layer; INL=Inner nuclear layer. OPL=Outer plexiform layer; ONL=Outer nuclear layer. Data shown represent Mean±SEM (9 mice per group). *P<0.05; **P<0.01; […].
# FIG. 21 illustrates graphs showing ri CD40-TRAF2,3 blocking peptide impairs upregulation of NOS2 and COX-2 in retinas subjected to I/R. One eye of each mouse was treated as above and subjected to I/R. Eyes were collected after 2 d. mRNA levels of NOS2 and COX-2 were assessed by quantitative real time PCR. One non-ischemic eye from a B6 mouse was given an arbitrary value of 1 and data are expressed as fold-increase compared to this animal. Data shown represent Mean±SEM (7-9 mice per group). ***P<0.001.
# FIGS. 22(A-B) illustrate graphs and images showing ri CD40-TRAF2,3 blocking peptide impairs upregulation of ICAM-1 and KC/CXCL1 in retinal endothelial cells from retinas subjected to I/R. One eye of each mouse was subjected to I/R. Eyes were collected after 2 d. mRNA levels of ICAM-1 and KC/CXCL1 were assessed by quantitative real time PCR. One non-ischemic eye from a B6 mouse was given an arbitrary value of 1 and data are expressed as fold-increase compared to this animal. Data shown represent Mean±SEM (7-9 mice per group). ***P<0.001. Retinal sections were incubated with Tomato Lectin (labels endothelial cells) plus either anti-ICAM-1 or anti-KC/CXCL1 Ab. Original magnification ×600. GCL=Ganglion cell layer; IPL=Inner plexiform layer; INL=Inner nuclear layer. Scale bar, 10 μm. 6 mice/group.
# FIG. 23 illustrates images showing ri CD40-TRAF2,3 blocking peptide impairs NOS2 and KC/CXCL1 upregulation in Müller cells from retinas subjected to I/R. Eyes from B6 mice were treated with control peptide or CD40-TRAF2,3 blocking peptide, subjected to I/R and collected after 2 d. Retinal sections were incubated with anti-Vimentin Ab (labels Müller cells) plus either anti-NOS2 or anti-KC/CXCL1 Ab. Protein expression at the level of Müller cells stalks. […]. Original magnification ×600. Scale bar, 10 μm. 6 mice/group.
# FIGS. 24(A-D) illustrate images and graphs showing ri CD40-TRAF2,3 blocking peptide protects against loss of ganglion neurons and inflammation when administered after retinal I/R. One eye from each B6 mouse was subjected to I/R. Non-ischemic eyes were used as controls. Eyes that were subjected to I/R received either ri control peptide or ri CD40-TRAF2,3 blocking peptide 90 min after increase in IOP. Eyes were collected 2 d after I/R. Administration of the blocking peptide protects against ganglion cell loss and infiltration by leukocytes (arrowhead). Original magnification ×400. Scale bar, 50 μm. Number of ganglion cells per mm. Number of leukocytes in the inner retina and vitreous per section. mRNA levels of ICAM-1, KC/CXCL1, NOS2 and COX-2 were assessed by quantitative real time PCR as above. Data shown represent Mean±SEM (7-9 mice per group). **P<0.01; ***P<0.001. GCL=Ganglion cell layer; IPL=Inner plexiform layer; INL=Inner nuclear layer. […]
# [2] = test system: CD40-TRAF2,3 signaling; assay: NF-κB luciferase reporter assay in mHEVc expressing hmCD40 ΔT6 (signals through the TRAF2,3 binding site); type: cell-based, mouse; conditions: 1 μM, 3 hr pre-incubation, hmCD40 ΔT6 cells; P<0.01
# Protocol: Mouse endothelial cells (mHEVc) that express an NF-κB response element that drives transcription of a luciferase reporter plus either hmCD40 ΔT2,3 or hmCD40 ΔT6 were pre-incubated with ri control peptide (Ctr P) or ri CD40-TRAF2,3 blocking peptide (T2,3 BP; both at 1 μM) or medium alone followed by stimulation with human CD154. Data are expressed as fold-increase in normalized luciferase activity in cells stimulated with CD154 compared to cells treated with respective peptide in the absence of CD154. Data shown represent Mean±SD. Results are representative of 2 independent experiments. **P<0.01.
# Peptides were tested as described using the mouse endothelial cells mHEVc that expresses a chimera of the extracellular domain of human CD40 and intracytoplasmic domain of mouse CD40 (hmCD40) with either a mutation that prevents recruitment of TRAF2,3 (hmCD40 ΔT2,3) or TRAF6 (hmCD40 ΔT6). These cells were transfected with pGL4.32luc2P/NF-κB-RE/Hygro vector (Promega Corporation, Madison, WI) encoding an NF-κB response element that drives the luciferase reporter gene luc2P (Photinus pyralis). Cells were pre-incubated with peptides for 3 hr. followed by stimulation with human CD154. Luciferase activity was assessed using a Steady-Glo luciferase assay system (Promega Corporation) and a luminometer. The effects of peptides on cell viability were examined using alamarBlue cell viability assay. […]
# [3] = 1 μg intravitreal prior to I/R, 2 d, real time PCR
# [4] = peptide administered 90 min post-retinal ischemia, 2 d, mRNA
# [5] = prior to I/R, 2 d, immunohistochemistry
compound,measurement,setting,value
"CC(C)C[C@@H](NC(=O)[C@@H](Cc1c[nH]cn1)NC(=O)CNC(=O)[C@@H](Cc1ccc(O)cc1)NC(=O)CNC(=O)[C@@H](CCCNC(=N)N)NC(=O)[C@@H](CCCCN)NC(=O)[C@@H](CCCCN)NC(=O)[C@@H](CCCNC(=N)N)NC(=O)[C@@H](CCCNC(=N)N)NC(=O)[C@@H](CCC(N)=O)NC(=O)[C@@H](CCCNC(=N)N)NC(=O)[C@@H](CCCNC(=N)N)NC(=O)[C@H](N)CCCNC(=N)N)C(=O)N[C@@H](C(=O)N[C@H](CCC(=O)O)C(=O)N[C@H](CCC(N)=O)C(=O)N[C@@H](C(=O)N[C@H](Cc1c[nH]cn1)C(=O)N[C@H](C)C(=O)N[C@H](C)C(=O)N[C@@H](C(=O)N[C@H](CC(N)=O)C(=O)O)[C@H](C)O)C(C)C)[C@H](C)O [ri CD40-TRAF2,3 blocking peptide, NH2-rrrqrrkkrgy ghlteqvhaatn-OH] (H-[dR][dR][dR][dQ][dR][dR][dK][dK][dR]G[dY]G[dH][dL][dT][dE][dQ][dV][dH][dA][dA][dT][dN]-OH)",COX-2 mRNA levels in retina,[1]; [3],impaired upregulation
same,ICAM-1 mRNA levels in retina,[1]; [3],significant reduction
same,KC/CXCL1 mRNA levels in retina,[1]; [3],significant reduction
same,NOS2 mRNA levels in retina,[1]; [3],impaired upregulation
same,PMN infiltration in the inner retina and vitreous,"[1]; 1 μg intravitreal prior to I/R, 2 d after I/R",diminished inflammatory infiltrate
same,loss of ganglion cells,"[1]; 1 μg intravitreal prior to I/R, eyes collected 2 d after I/R",significant attenuation in the loss of ganglion cells
same,leukocyte recruitment,"[1]; peptide administered 90 min post-retinal ischemia, 2 d",protected against
same,upregulation of COX-2,[1]; [4],protected against
same,upregulation of ICAM-1,[1]; [4],protected against
same,upregulation of KC/CXCL1,[1]; [4],protected against
same,upregulation of NOS2,[1]; [4],protected against
same,ganglion cell loss,"[1]; peptide administered 90 min post-retinal ischemia, eyes collected 2 d after I/R",protected against
same,expression of ICAM-1 in retinal endothelial cells,[1]; [5],decreased expression
same,expression of KC/CXCL1 in Müller cells,[1]; [5],impaired expression
same,expression of KC/CXCL1 in retinal endothelial cells,[1]; [5],decreased expression
same,expression of NOS2 in Müller cells,[1]; [5],impaired expression
same,NF-κB activity (luciferase) after human CD154,[2],inhibited NF-κB activity
